Test results published in patent publication US20160271139A1, “METHOD FOR NON-TOXIC TREATMENT FOR DRUG WITHDRAWAL” (DEMERX, INC., priority 2013, published 2016).
“Also recorded” adds a separate entry of the source.

Tests used:
dogs = assay: Single dose acute oral toxicity/TK study in dogs; assay type: in vivo, dog
cynomolgus monkey = assay: Single dose toxicity in cynomolgus monkeys; assay type: in vivo; conditions: oral gavage
Protocol: The objective of the study was to determine the toxicity and toxicokinetic profile of noribogaine following oral (gavage) administration to the cynomolgus monkey. The test article was administered as follows in Table 1:
Parameters monitored on the study included: mortality, clinical signs and body weights. Blood samples were collected for TK evaluation. […] The single dose maximum tolerated dose (MTD) was determined to be greater than 160 mg/kg based on the parameters monitored during the study.

[1] = Human pharmacokinetic study, single oral dose, serum levels (Example 6); assay type: in vivo; conditions: human serum, fasting
Protocol: In double blind studies, fasting healthy volunteers (6 per cohort) were treated once orally with a tablet of noribogaine HCl. In escalating cohorts, the volunteers received 3 mg, 10 mg, 30 mg or 60 mg noribogaine.

[2] = Plasma noribogaine pharmacokinetics in healthy volunteers (Example 7); assay type: in vivo, human; conditions: for AUC0-216 / AUC0-∞ / CL/F / Tmax / t1/2: mean
[3] = Urine noribogaine and noribogaine glucuronide elimination in healthy volunteers; assay type: in vivo; conditions: human urine
[4] = system: healthy, drug-free male volunteers; assay: Pupillary miosis by pupillometry in healthy volunteers; assay type: in vivo, human; conditions: single oral 3-60 mg, vs placebo p>0.9
Protocol: Pulse oximetry and capnography data were collected continuously using a GE Carescape B650 monitoring system from 2 hours prior to dosing and until six hours after dosing, and thereafter at 12, 24, 48 and 72 hours post-dosing. […] Pupillary miosis was assessed by pupillometry.
Dose-proportionality of AUC and Cmax was assessed using linear regression.

[5] = system: healthy, drug-free male volunteers; assay: Cold pressor test in healthy volunteers; assay type: in vivo, human; conditions: single oral 3-60 mg, vs placebo p>0.9 and p=0.17
Protocol: Analgesic effect was assessed based on duration of hand immersion in ice water and on visual analog scale (VAS) pain scores upon hand removal from the water bath.
(§1) Safety and tolerability of noribogaine were tested in the group of volunteers from Example 1. […] Safety evaluations included clinical monitoring, recording of adverse events (AEs), safety laboratory tests, vital signs, ECO telemetry from −2 h to 6 h after dosing, and 12-lead electrocardiograms (ECGs) up to 216 hours post-dosing.

[6] = system: healthy, drug-free male volunteers; assay: Safety and tolerability in healthy volunteers; assay type: in vivo, human
Protocol: as §1

[7] = system: opioid-dependent participants; assay: Efficacy in opioid-dependent participants: time to resumption of opioid substitution treatment; assay type: in vivo, human
Protocol: (§2) The efficacy of noribogaine in humans was evaluated in opioid-dependent participants in a randomized, placebo-controlled, double-blind trial. In the first cohort, six patients were orally administered a single dose of 60 mg noribogaine, and three patients received placebo. In the second cohort, five patients were orally administered a single dose of 120 mg noribogaine, and three patients received placebo.

[8] = system: opioid-dependent participants; assay: Safety (QT interval, adverse effects) in opioid-dependent participants; assay type: in vivo, human
Protocol: as §2

various animal species = assay: Pre-clinical toxicity studies in various animal species (background); assay type: in vivo
[9] = system: animal models of addiction; conditions: cited from earlier work
[10] = single oral dose 30 mg free base
[11] = human plasma, single oral 3 mg (n = 6)
[12] = human plasma, single oral 10 mg (n = 6)
[13] = human plasma, single oral 30 mg (n = 6)
[14] = human plasma, single oral 60 mg (n = 6)
[15] = opioid-dependent participants, single oral 60 mg or 120 mg

CC[C@H]1C[C@H]2C[C@H]3c4[nH]c5ccc(O)cc5c4CCN(C2)[C@@H]13 [noribogaine]
NOAEL (dogs): 5 mg/kg | Findings at the NOAEL dose (dogs; 5 mg/kg): only transient reduction in food consumption in one dog | Clinical signs (dogs; 10 mg/kg, beginning 20 minutes after dosing, persisting until 3 h 40 m post-dose): Convulsions and other CNS-related clinical signs | Mortality (dogs; 5 (n=2) or 10 (n=2) mg/kg): no mortality occurred | Single dose maximum tolerated dose (MTD) (cynomolgus monkey): greater than 160 mg/kg | Mortality or treatment related clinical signs (cynomolgus monkey; doses up to and including 160 mg/kg): No mortality or treatment related clinical signs | time after administration at which mean Cmax was observed ([1]; single oral dose 3 mg free base): 1.9 h | time after administration at which mean Cmax was observed ([1]; single oral dose 10 mg free base): 2.9 h | mean Cmax [1, 10]: 55.0 ng/mL | time after administration at which mean Cmax was observed [1, 10]: 1.75 h | time after administration at which mean Cmax was observed ([1]; single oral dose 60 mg free base): 1.75 h | Dose proportionality of Cmax and AUC ([2]; human plasma, 3-60 mg): increased linearly with dose | Mean half-life estimates ([2]; human plasma, across dose groups): 28 to 50 h | Time of peak concentrations after oral dosing ([2]; human plasma, across dose groups 3-60 mg): 2 to 3 h | AUC0-216 [2, 11]: 72.2 ng·h/mL | AUC0-∞ [2, 11]: 74.2 ng·h/mL | CL/F [2, 11]: 41.4 L/h | Tmax [2, 11]: 1.9 h | t1/2 [2, 11]: 40.9 h | AUC0-216 [2, 12]: 251.4 ng·h/mL | AUC0-∞ [2, 12]: 254.5 ng·h/mL | CL/F [2, 12]: 42.3 L/h | Tmax [2, 12]: 2.9 h | t1/2 [2, 12]: 49.2 h | AUC0-216 [2, 13]: 677.6 ng·h/mL | AUC0-∞ [2, 13]: 700.4 ng·h/mL | CL/F [2, 13]: 46.9 L/h | Tmax [2, 13]: 1.8 h | t1/2 [2, 13]: 27.6 h | AUC0-216 [2, 14]: 1935.4 ng·h/mL | AUC0-∞ [2, 14]: 1962.2 ng·h/mL | CL/F [2, 14]: 34.0 L/h | Tmax [2, 14]: 2.4 h | t1/2 [2, 14]: 29.1 h | Volume of distribution ([2]; human, across dose groups): 1417 to 3086 L | Total urine noribogaine elimination (sum of noribogaine and noribogaine glucuronide) ([3]; 30 mg dose group): 1.16 mg | Total urine noribogaine elimination as share of the dose administered ([3]; 30 mg dose group): 3.9% | Total urine noribogaine elimination (sum of noribogaine and noribogaine glucuronide) ([3]; 60 mg dose group): 0.82 mg | Total urine noribogaine elimination as share of the dose administered ([3]; 60 mg dose group): 1.4% | Pupillary constriction (dark-adapted pupil diameter) [4]: no evidence of pupillary constriction | Analgesic effect (duration of hand immersion, VAS pain scores) [5]: no analgesic effect | Number of adverse events reported ([6]; healthy volunteers, 3 mg dose group): five adverse events were reported by two subjects | Number of adverse events reported ([6]; healthy volunteers, 10 mg dose group, single subject): one adverse event | Number of adverse events reported ([6]; healthy volunteers, 30 mg dose group, single subject): one adverse event | Oximetry, capnography, respiratory rate ([6]; healthy volunteers, 3-60 mg): no changes in oximetry or capnography, or changes in respiratory rate | Vital signs or safety laboratory tests ([6]; healthy volunteers, 3-60 mg): no changes in vital signs or safety laboratory tests of note | QTcF values >500 msec ([6]; healthy volunteers, 3-60 mg, at any time): no QTcF values>500 msec at any time | Adverse events, Mild ([6]; healthy volunteers, Dose 3 mg): Dizziness; also recorded: Epistaxis; also recorded: Headache; also recorded: Back pain | Adverse events, Moderate ([6]; healthy volunteers, Dose 3 mg): Headache | Adverse events, Mild ([6]; healthy volunteers, Dose 10 mg): Headache | Adverse events, Mild ([6]; healthy volunteers, Dose 30 mg): Headache | Single increase in QTcF ([6]; one subject dosed with 10 mg, at 24 hours post-dosing): > 60 ms | Time to resumption of opioids longer than that reported for untreated patients in a similar study ([7]; first cohort, blinded: 60 mg noribogaine or placebo): ~2 h | Average time to resumption of opioids ([7]; first cohort, blinded: single oral 60 mg noribogaine (6 patients) or placebo (3 patients)): approximately 8.7 hours | Average time to resumption of OST ([7]; second cohort, 120 mg, five presumed noribogaine-treated patients (those with QT prolongation)): approximately 26.8 hours | Average time to resumption of opioids ([7]; second cohort, blinded: single oral 120 mg noribogaine (5 patients) or placebo (3 patients)): approximately 23 hours | Mean prolongation of the QT interval ([8]; first cohort, 60 mg noribogaine or placebo): less than 10 ms | Adverse effects [8, 15]: No adverse effects of noribogaine were observed in any of the participants | Hallucinatory effects [8, 15]: no hallucinatory effects | Mean prolongation of the QT interval ([8]; second cohort, 120 mg noribogaine or placebo): less than 40 ms | Toxicity at high doses (various animal species): can cause convulsions and other CNS-related clinical signs, respiratory arrest and death | Efficacy in animal models of addiction ([9]; alcohol, cocaine and opiate dependence): effective in animal models of addiction to alcohol, cocaine and opiate dependence | Psychotomimetic effects ([9]; animal model): had no activity | Drug-seeking behavior ([9]; various animal addiction models): significantly reduced drug-seeking behavior
